According to US12384770B2, “Heterocyclic compound” (Takeda Pharmaceutical Company Limited, priority 2019, dated 2025):

These compounds were tested against T1, HDAC6 enzyme (Homo sapiens, UniProt Q9UBN7) (assay: HDAC6 enzyme inhibitory assay (HDAC-Glo I/II Assay kit)). Settings: wells without enzyme = 100% inhibition.
T1 construct: HDAC6 enzyme prepared by transducing full length HDAC6 gene into Sf-9 insect cells; GST; purchased SignalChem; host or cells: Sf-9 insect cells
T1 sequence (Q9UBN7 1-1215): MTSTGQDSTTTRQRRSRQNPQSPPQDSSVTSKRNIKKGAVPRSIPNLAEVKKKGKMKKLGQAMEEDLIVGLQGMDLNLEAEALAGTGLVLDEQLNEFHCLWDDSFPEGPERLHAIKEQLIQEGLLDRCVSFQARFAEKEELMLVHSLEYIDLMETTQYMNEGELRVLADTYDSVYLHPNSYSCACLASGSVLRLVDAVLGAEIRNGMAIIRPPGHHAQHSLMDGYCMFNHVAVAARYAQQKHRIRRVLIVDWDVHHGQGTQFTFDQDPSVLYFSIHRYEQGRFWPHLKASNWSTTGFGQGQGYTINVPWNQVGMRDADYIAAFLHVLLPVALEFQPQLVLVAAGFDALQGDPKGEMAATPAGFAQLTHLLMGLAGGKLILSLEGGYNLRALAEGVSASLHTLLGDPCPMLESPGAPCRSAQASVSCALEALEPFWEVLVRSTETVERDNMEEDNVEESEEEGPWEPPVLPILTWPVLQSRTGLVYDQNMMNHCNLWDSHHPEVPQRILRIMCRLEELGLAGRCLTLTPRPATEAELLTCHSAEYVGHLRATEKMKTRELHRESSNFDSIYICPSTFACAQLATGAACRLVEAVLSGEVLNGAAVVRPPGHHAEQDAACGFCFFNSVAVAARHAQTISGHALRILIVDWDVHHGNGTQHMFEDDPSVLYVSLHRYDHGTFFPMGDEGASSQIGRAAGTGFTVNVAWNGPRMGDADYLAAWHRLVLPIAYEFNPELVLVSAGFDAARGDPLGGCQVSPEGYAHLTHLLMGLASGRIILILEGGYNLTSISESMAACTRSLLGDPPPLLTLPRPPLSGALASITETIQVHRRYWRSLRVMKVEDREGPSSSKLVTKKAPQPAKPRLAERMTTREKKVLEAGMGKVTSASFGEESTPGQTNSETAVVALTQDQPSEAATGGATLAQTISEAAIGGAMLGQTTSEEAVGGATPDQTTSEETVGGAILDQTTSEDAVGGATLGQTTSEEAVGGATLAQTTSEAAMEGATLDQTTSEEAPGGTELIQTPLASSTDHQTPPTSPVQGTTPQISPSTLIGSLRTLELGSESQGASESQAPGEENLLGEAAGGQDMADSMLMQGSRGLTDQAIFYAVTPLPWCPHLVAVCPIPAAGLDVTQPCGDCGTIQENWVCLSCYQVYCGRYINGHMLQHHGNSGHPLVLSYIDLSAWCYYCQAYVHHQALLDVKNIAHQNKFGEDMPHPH
Format: biochemical
Procedure, shortened: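 Full-length GST-purified HDAC6 from Sf-9 cells preincubated with compound 60 min at room temperature in Tris-HCl pH 7.5 buffer with MgCl2, KCl, NaCl, glutathione, Tween-20. Substrate-developer reaction 20 min, luminescence read; no-enzyme wells set as 100% inhibition.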

HDAC6 inhibitory rate (%) (10 μM)	Compound
100	O=C1c2cc(-c3nnc(C(F)F)o3)ccc2CN1[C@H](c1cnccn1)[C@@H](O)c1cccc(F)c1 (single isomer, unassigned) [Example 101, 6-[5-(difluoromethyl)-1,3,4-oxadiazol-2-yl]-2-[(1R*,2S*)-2-(3-fluorophenyl)-2-hydroxy-1-(pyrazin-2-yl)ethyl]-2,3-dihydro-1H-isoindol-1-one]
100	O=C1c2cc(-c3nnc(C(F)F)o3)ccc2CN1[C@H](c1ccc(F)cc1)[C@@H](O)c1ccccc1 (single isomer, unassigned) [Example 46, 6-[5-(difluoromethyl)-1,3,4-oxadiazol-2-yl]-2-[(1R*,2S*)-1-(4-fluorophenyl)-2-hydroxy-2-phenylethyl]-2,3-dihydro-1H-isoindol-1-one]
99	O=C1c2cc(-c3nnc(C(F)F)o3)ccc2CN1[C@H](c1ccc(F)c(F)c1)[C@@H](O)c1ccccn1 (single isomer, unassigned) [Example 51, 6-[5-(difluoromethyl)-1,3,4-oxadiazol-2-yl]-2-[(1R*,2R*)-1-(3,4-difluorophenyl)-2-hydroxy-2-(pyridin-2-yl)ethyl]-2,3-dihydro-1H-isoindol-1-one]

Same assay, conditions: wells without enzyme = 100% inhibition, 10 µM

HDAC6 inhibitory rate (%) (10 μM)	Compound
100	O=C1c2cc(-c3nnc(C(F)F)o3)ccc2CN1[C@H](c1ccc(F)cc1)[C@@H](O)c1cccnc1 (single isomer, unassigned) [Example 52, 6-[5-(difluoromethyl)-1,3,4-oxadiazol-2-yl]-2-[(1R*,2S*)-1-(4-fluorophenyl)-2-hydroxy-2-(pyridin-3-yl)ethyl]-2,3-dihydro-1H-isoindol-1-one]
100	O=C1c2cc(-c3nnc(C(F)F)o3)ccc2CN1[C@H](c1ccccn1)[C@@H](O)c1cccc(Cl)n1 (single isomer, unassigned) [Example 115, 2-[(1R*,2R*)-2-(6-chloropyridin-2-yl)-2-hydroxy-1-(pyridin-2-yl)ethyl]-6-[5-(difluoromethyl)-1,3,4-oxadiazol-2-yl]-2,3-dihydro-1H-isoindol-1-one]

Same assay, conditions: wells without enzyme = 100% inhibition, read-out: HDAC6 inhibitory rate (%) (10 μM)

inhibition at 10 µM [%]	Compound
101	O=C1c2cc(-c3nnc(C(F)F)o3)ccc2CN1[C@H](c1cccc(F)n1)[C@@H](O)c1ccc(F)cn1 (relative stereo) [Example 125, 6-[5-(difluoromethyl)-1,3,4-oxadiazol-2-yl]-2-[(1R*,2R)-2-(5-fluoropyridin-2-yl)-1-(6-fluoropyridin-2-yl)-2-hydroxyethyl]-2,3-dihydro-1H-isoindol-1-one]
100	O=C1c2cc(-c3nnc(C(F)F)o3)ccc2CN1[C@H](c1cccc(F)n1)[C@@H](O)c1cccc(F)c1 (single isomer, unassigned) [Example 89, 6-[5-(difluoromethyl)-1,3,4-oxadiazol-2-yl]-2-[(1R*,2S*)-2-(3-fluorophenyl)-1-(6-fluoropyridin-2-yl)-2-hydroxyethyl]-2,3-dihydro-1H-isoindol-1-one]
100	O=C1c2cc(-c3nnc(C(F)F)o3)ccc2CN1[C@H](C1CC1)[C@@H](O)c1ncccn1 (single isomer, unassigned) [Example 73, 2-[(1R*,2R*)-1-cyclopropyl-2-hydroxy-2-(pyrimidin-2-yl)ethyl]-6-[5-(difluoromethyl)-1,3,4-oxadiazol-2-yl]-2,3-dihydro-1H-isoindol-1-one]
102	O=C1c2cc(-c3nnc(C(F)F)o3)ccc2CN1[C@H](c1ccccn1)[C@@H](O)c1cccc(F)n1 [Example 7, 6-[5-(difluoromethyl)-1,3,4-oxadiazol-2-yl]-2-[(1R,2R)-2-(6-fluoropyridin-2-yl)-2-hydroxy-1-(pyridin-2-yl)ethyl]-2,3-dihydro-1H-isoindol-1-one]
100	O=C1c2cc(-c3nnc(C(F)F)o3)ccc2CN1[C@H](c1ccccn1)[C@H](O)c1ccccc1 (racemic) [Example 143, 6-[5-(difluoromethyl)-1,3,4-oxadiazol-2-yl]-2-[(1RS,2RS)-2-hydroxy-2-phenyl-1-(pyridin-2-yl)ethyl]-2,3-dihydro-1H-isoindol-1-one]
100	O=C1c2cc(-c3nnc(C(F)F)o3)ccc2CN1[C@H](C1CC1)[C@@H](O)c1ccc(F)nc1 [Example 63, 2-[(1R,2S)-1-cyclopropyl-2-(6-fluoropyridin-3-yl)-2-hydroxyethyl]-6-[5-(difluoromethyl)-1,3,4-oxadiazol-2-yl]-2,3-dihydro-1H-isoindol-1-one]
101	O=C1c2cc(-c3nnc(C(F)F)o3)ccc2CN1[C@H](c1ccccn1)[C@@H](O)c1cc(Cl)ccn1 (single isomer, unassigned) [Example 123, 2-[(1R*,2R*)-2-(4-chloropyridin-2-yl)-2-hydroxy-1-(pyridin-2-yl)ethyl]-6-[5-(difluoromethyl)-1,3,4-oxadiazol-2-yl]-2,3-dihydro-1H-isoindol-1-one]
100	O=C1c2cc(-c3nnc(C(F)F)o3)ccc2CN1[C@H](c1ncccn1)[C@@H](O)c1ccc(Cl)cc1 (racemic) [Example 93, 2-[(1RS,2SR)-2-(4-chlorophenyl)-2-hydroxy-1-(pyrimidin-2-yl)ethyl]-6-[5-(difluoromethyl)-1,3,4-oxadiazol-2-yl]-2,3-dihydro-1H-isoindol-1-one]
99	O=C1c2cc(-c3nnc(C(F)F)o3)ccc2CN1[C@H](c1ccc(F)cc1)[C@@H](O)c1ccccc1F (racemic) [Example 29, 6-[5-(difluoromethyl)-1,3,4-oxadiazol-2-yl]-2-[(1RS,2SR)-2-(2-fluorophenyl)-1-(4-fluorophenyl)-2-hydroxyethyl]-2,3-dihydro-1H-isoindol-1-one]
100	O=C1c2cc(-c3nnc(C(F)F)o3)ccc2CN1[C@H](c1ccc(F)cn1)[C@@H](O)c1cccc(F)n1 (single isomer, unassigned) [Example 66, 6-[5-(difluoromethyl)-1,3,4-oxadiazol-2-yl]-2-[(1R*,2R*)-1-(5-fluoropyridin-2-yl)-2-(6-fluoropyridin-2-yl)-2-hydroxyethyl]-2,3-dihydro-1H-isoindol-1-one]
99	O=C1c2cc(-c3nnc(C(F)F)o3)ccc2CN1[C@H](c1ccc(F)cc1)[C@@H](O)c1ccc(F)nc1 (single isomer, unassigned) [Example 131, 6-[5-(difluoromethyl)-1,3,4-oxadiazol-2-yl]-2-[(1R*,2S*)-1-(4-fluorophenyl)-2-(6-fluoropyridin-3-yl)-2-hydroxyethyl]-2,3-dihydro-1H-isoindol-1-one]
100	O=C1c2cc(-c3nnc(C(F)F)o3)ccc2CN1[C@H](c1ccccn1)[C@@H](O)c1ccccc1 (single isomer, unassigned) [Example 102, 6-[5-(difluoromethyl)-1,3,4-oxadiazol-2-yl]-2-[(1R*,2S*)-2-hydroxy-2-phenyl-1-(pyridin-2-yl)ethyl]-2,3-dihydro-1H-isoindol-1-one]
100	O=C1c2cc(-c3nnc(C(F)F)o3)ccc2CN1[C@H](C1CCC(F)(F)CC1)[C@@H](O)c1ccccn1 (racemic) [Example 81, 2-[(1RS,2RS)-1-(4,4-difluorocyclohexyl)-2-hydroxy-2-(pyridin-2-yl)ethyl]-6-[5-(difluoromethyl)-1,3,4-oxadiazol-2-yl]-2,3-dihydro-1H-isoindol-1-one]
99	O=C1c2cc(-c3nnc(C(F)F)o3)ccc2CN1[C@H](c1ccc(F)c(F)c1)[C@@H](O)c1ccccn1 (single isomer, unassigned) [Example 50, 6-[5-(difluoromethyl)-1,3,4-oxadiazol-2-yl]-2-[(1R*,2R*)-1-(3,4-difluorophenyl)-2-hydroxy-2-(pyridin-2-yl)ethyl]-2,3-dihydro-1H-isoindol-1-one]
100	O=C1c2cc(-c3nnc(C(F)F)o3)ccc2CN1[C@@H](c1ccccn1)[C@H](O)c1ccc(F)cn1 [Example 4, 6-[5-(difluoromethyl)-1,3,4-oxadiazol-2-yl]-2-[(1S,2S)-2-(5-fluoropyridin-2-yl)-2-hydroxy-1-(pyridin-2-yl)ethyl]-2,3-dihydro-1H-isoindol-1-one]
